Reference: PMC6335420, “The cell cycle regulator GpsB functions as cytosolic adaptor for multiple cell wall enzymes” (Nature Communications, 2019)

B1: SpPBP1a: S. pneumoniae class A PBP1a (protein)
chain: MNKPTILRLIKYLSISFLSLVIAAIVLGGGVFFYYVSKAPSLSESKLVATTSSKIYDNKNQLIADLGSERRVNAQANDIPTDLVKAIVSIEDHRFFDHRGIDTIRILGAFLRNLQSNSLQGGSALTQQLIKLTYFSTSTSDQTISRKAQEAWLAIQLEQKATKQEILTYYINKVYMSNGNYGMQTAAQNYYGKDLNNLSLPQLALLAGMPQAPNQYDPYSHPEAAQDRRNLVLSEMKNQGYISAEQYEKAVNTPITDGLQSLKSASNYPAYMDNYLKEVINQVEEETGYNLLTTGMDVYTNVDQEAQKHLWDIYNTDEYVAYPDDELQVASTIVDVSNGKVIAQLGARHQSSNVSFGINQAVETNRDWGSTMKPITDYAPALEYGVYESTATIVHDEPYNYPGTNTPVYNWDRGYFGNITLQYALQQSRNVPAVETLNKVGLNRAKTFLNGLGIDYPSIHYSNAISSNTTESDKKYGASSEKMAAAYAAFANGGTYYKPMYIHKVVFSDGSEKEFSNVGTRAMKETTAYMMTDMMKTVLSYGTGRNAYLAWLPQAGKTGTSNYTDEEIENHIKTSQFVAPDELFAGYTRKYSMAVWTGYSNRLTPLVGNGLTVAAKVYRSMMTYLSEGSNPEDWNIPEGLYRNGEFVFKNGARSTWSSPAPQQPPSTESSSSSSDSSTSQSSSTTPSTNNSTTTNPNNNTQQSNTTPDQQNQNPQPAQP
modifications: left off: T25 or T18 fragment of adenylate cyclase (vectors pKT25, pUT18C), N-terminal, kept
notes: S. pneumoniae class A PBP1a

Tests used:
GpsB = experiment: Displacement of pre-bound PBP peptides from GpsB; format: binding; conditions: 100-fold molar excess of free L-arginine
SpGpsB = experiment: BACTH interaction with SpGpsB; format: cell-based, Streptococcus pneumoniae; conditions: E. coli BTH101, 30 °C, 36-40 h
Excerpt: The target genes were amplified by the PCR from S. pneumoniae D39 chromosomal DNA. PCR fragments for pbp2a, mreC, pbp1a, pbp2x and pbp2b were purified, digested with appropriate restriction enzymes and cloned into the corresponding sites of the pKT25/pUT18C vectors to generate plasmids encoding the corresponding hybrid proteins fused at the C-terminal ends of the T25 and T18 fragments, respectively. Plasmids pKNT25-gpsB/pUT18-gpsB, pKNT25-stkP/pUT18-stkP and pKNT25-ezrA/pUT18-ezrA were already constructed. The mutated and truncated gpsB and pbp2a alleles were amplified from their respective DNA templates and the corresponding PCR products cloned into the corresponding sites of the BACTH vectors as described above for the wild-type alleles. E. coli DH5α transformants were selected on LB agar plates containing ampicillin (100 μg^−1mL^−1) or kanamycin (50 μg^−1mL^−1) and 0.4% glucose to repress leaky expression.
BACTH experiments, each pair of plasmids was co-transformed into the E. coli cya- strain BTH101 and co-transformation mixtures were spotted onto LB agar plates supplemented with ampicillin ([…]), kanamycin ([…]) and X-Gal (40 μg^−1mL^−1), followed by incubation at 30 °C. Plates were inspected and photographed after 24 and 40 h. Plasmid pairs pKNT25/pUT18 and pKT25-zip/pUT18C-zip were used as negative and positive controls, respectively. […]

Molecule	displacement of pre-bound PBP peptides from GpsB (GpsB)	BACTH interaction with SpGpsB (SpGpsB)
N=C(N)NCCC[C@H](N)C(=O)O [L-arginine]	does not displace pre-bound PBP peptides from GpsB	
B1		interacted
